Results: ChEMBL document CHEMBL3352242, “Structure-based design of substituted piperidines as a new class of highly efficacious oral direct Renin inhibitors” (ACS Med Chem Lett, 2014)

Key:
[1] = test system: Rattus norvegicus; assay: Reduction in mean arterial pressure in human renin and human angiotensinogen double transgenic rat at 3 mg/kg, po; format: functional, Artery
[2] = test system: Rattus norvegicus; assay: Reduction in mean arterial pressure in human renin and human angiotensinogen double transgenic rat at 10 mg/kg, po; format: functional, Artery
[3] = test system: Rattus norvegicus; assay: Reduction in mean arterial pressure in human renin and human angiotensinogen double transgenic rat at 30 mg/kg, po; format: functional, Artery
[4] = test system: Rattus norvegicus; assay: Reduction in mean arterial pressure in human renin and human angiotensinogen double transgenic rat at 100 mg/kg, po; format: functional, Artery
[5] = Oral bioavailability in Sprague-Dawley rat at 6 mg/kg; format: ADME, organism-based; settings: in vivo
[6] = Clearance in Sprague-Dawley rat at 2 mg/kg, iv; format: ADME, organism-based; set-up: dose 2 mg/kg, route intravenous; settings: in vivo
[7] = Volume of distribution at steady state in Sprague-Dawley rat at 2 mg/kg, iv; format: ADME, organism-based; set-up: dose 2 mg/kg, route intravenous; settings: in vivo, read-out: Vdss
[8] = Half life in Sprague-Dawley rat at 2 mg/kg, iv; format: ADME, organism-based; set-up: dose 2 mg/kg, route intravenous; settings: in vivo
[9] = test system: Rattus norvegicus; assay: Dose normalized Cmax inSprague-Dawley rat at 6 mg/kg, po; format: ADME, organism-based, Sprague-Dawley; set-up: dose 6 mg/kg, route oral; settings: in vivo
[10] = test system: Rattus norvegicus; assay: Dose normalized AUC (infinity) in Sprague-Dawley rat at 6 mg/kg, po; format: ADME, organism-based; set-up: dose 6 mg/kg, route oral; settings: in vivo
[11] = test system: Rattus norvegicus; assay: Reduction in mean arterial pressure in human renin and human angiotensinogen double transgenic rat at 1 mg/kg, po; format: functional, Artery
[12] = Lipophilicity, logD of the compound at pH 6.8; format: physicochemical; settings: buffer
[13] = target: Pepsin A (Homo sapiens, UniProt P0DJD9); assay: Inhibition of human recombinant pepsinogen A expressed in Escherichia coli using fluorescence-quenched Dabcyl-E-R-Nle-F-L-S-F-P-EDANS substrate by fluorimetric assay
Sequence of Pepsin A (P0DJD9 whole entry): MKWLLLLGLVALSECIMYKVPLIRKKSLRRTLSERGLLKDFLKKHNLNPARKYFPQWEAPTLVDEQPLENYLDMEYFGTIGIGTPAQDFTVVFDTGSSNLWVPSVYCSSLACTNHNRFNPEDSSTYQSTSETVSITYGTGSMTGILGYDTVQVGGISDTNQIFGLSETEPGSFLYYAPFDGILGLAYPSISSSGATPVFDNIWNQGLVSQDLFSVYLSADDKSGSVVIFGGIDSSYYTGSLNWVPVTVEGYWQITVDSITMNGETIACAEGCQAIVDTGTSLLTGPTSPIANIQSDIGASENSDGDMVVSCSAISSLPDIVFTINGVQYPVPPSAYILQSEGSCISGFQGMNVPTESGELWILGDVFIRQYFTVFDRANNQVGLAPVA

[14] = target: T1, Gastricsin (Homo sapiens, UniProt P20142); assay: Inhibition of human recombinant pepsinogen C expressed in Escherichia coli using fluorescence-quenched Dabcyl-E-R-Nle-F-L-S-F-P-EDANS substrate by fluorimetric assay
T1 sequence (P20142 whole entry): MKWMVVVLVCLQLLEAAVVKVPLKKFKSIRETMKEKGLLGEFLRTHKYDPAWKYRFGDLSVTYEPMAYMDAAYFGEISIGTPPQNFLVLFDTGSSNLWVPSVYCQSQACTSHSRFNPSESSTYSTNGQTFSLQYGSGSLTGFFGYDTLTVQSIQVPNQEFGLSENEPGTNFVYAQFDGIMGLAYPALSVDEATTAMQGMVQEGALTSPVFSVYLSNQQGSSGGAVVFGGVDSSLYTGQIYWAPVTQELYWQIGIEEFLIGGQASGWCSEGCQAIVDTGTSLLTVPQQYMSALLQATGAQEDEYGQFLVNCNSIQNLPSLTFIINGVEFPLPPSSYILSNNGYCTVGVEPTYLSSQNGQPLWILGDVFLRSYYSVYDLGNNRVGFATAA

[15] = target: Cathepsin D (Homo sapiens, UniProt P07339); assay: Inhibition of human recombinant procathepsin D expressed in SF9 cells using fluorescence-quenched Ac-E-D(EDANS)-KPILFFRLG-K(Dabcyl)-E-Amid substrate by fluorimetric assay
Sequence of Cathepsin D (P07339 65-162 limits assumed): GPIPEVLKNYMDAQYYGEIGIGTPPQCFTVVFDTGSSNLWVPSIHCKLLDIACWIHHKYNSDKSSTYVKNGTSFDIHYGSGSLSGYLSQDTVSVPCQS
Sequence of Cathepsin D (P07339 169-412 limits assumed): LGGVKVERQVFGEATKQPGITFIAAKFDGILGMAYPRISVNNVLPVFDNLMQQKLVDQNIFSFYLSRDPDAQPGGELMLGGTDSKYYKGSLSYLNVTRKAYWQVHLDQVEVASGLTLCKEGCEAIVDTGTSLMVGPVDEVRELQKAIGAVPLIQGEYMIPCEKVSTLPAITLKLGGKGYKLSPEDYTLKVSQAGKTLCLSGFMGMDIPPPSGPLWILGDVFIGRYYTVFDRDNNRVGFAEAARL

[16] = target: T2, Cathepsin E (Homo sapiens, UniProt P14091); assay: Inhibition of human recombinant human procathepsin E expressed in Escherichia coli using fluorescence-quenched Ac-E-D(EDANS)-KPILFFRLG-K(Dabcyl)-E-Amid substrate by fluorimetric assay
T2 sequence (P14091 whole entry): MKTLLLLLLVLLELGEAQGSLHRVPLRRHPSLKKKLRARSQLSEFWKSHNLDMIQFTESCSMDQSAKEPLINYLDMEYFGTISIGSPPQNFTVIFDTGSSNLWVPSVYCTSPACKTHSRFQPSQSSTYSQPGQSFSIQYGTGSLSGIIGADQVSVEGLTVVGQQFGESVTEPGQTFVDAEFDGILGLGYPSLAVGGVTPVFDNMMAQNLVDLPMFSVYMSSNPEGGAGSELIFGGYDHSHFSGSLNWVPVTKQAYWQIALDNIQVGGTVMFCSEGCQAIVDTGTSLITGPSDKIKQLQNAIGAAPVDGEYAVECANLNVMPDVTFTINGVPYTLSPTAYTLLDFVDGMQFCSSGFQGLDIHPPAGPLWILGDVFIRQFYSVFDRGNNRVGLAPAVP

[17] = target: Beta-secretase 1 (Homo sapiens, UniProt P56817); assay: Inhibition of human recombinant BACE1 expressed in SF9 cells using fluorescence-quenched RE(EDANS)-EVNLDAEF-K(DABSYL)-R substrate by fluorimetric assay
Sequence of Beta-secretase 1 (P56817 whole entry): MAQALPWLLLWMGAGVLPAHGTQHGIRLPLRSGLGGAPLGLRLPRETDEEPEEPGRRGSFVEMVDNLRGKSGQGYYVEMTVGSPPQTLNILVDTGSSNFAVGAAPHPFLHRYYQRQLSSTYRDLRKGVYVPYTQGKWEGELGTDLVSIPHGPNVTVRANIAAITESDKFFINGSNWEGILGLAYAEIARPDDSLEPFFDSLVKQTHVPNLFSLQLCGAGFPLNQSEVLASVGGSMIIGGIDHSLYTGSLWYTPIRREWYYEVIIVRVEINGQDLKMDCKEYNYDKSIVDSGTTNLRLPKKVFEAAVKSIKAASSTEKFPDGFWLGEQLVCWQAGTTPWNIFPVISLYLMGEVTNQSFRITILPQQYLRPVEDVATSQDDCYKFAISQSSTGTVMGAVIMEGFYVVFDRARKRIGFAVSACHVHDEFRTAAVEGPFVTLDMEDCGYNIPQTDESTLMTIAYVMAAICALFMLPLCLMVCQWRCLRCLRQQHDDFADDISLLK

[18] = target: T3, Beta-secretase 2 (Homo sapiens, UniProt Q9Y5Z0); assay: Inhibition of human recombinant BACE2 expressed in SF9 cells using fluorescence-quenched RE(EDANS)-EVNLDAEF-K(DABSYL)-R substrate by fluorimetric assay
T3 sequence (Q9Y5Z0 whole entry): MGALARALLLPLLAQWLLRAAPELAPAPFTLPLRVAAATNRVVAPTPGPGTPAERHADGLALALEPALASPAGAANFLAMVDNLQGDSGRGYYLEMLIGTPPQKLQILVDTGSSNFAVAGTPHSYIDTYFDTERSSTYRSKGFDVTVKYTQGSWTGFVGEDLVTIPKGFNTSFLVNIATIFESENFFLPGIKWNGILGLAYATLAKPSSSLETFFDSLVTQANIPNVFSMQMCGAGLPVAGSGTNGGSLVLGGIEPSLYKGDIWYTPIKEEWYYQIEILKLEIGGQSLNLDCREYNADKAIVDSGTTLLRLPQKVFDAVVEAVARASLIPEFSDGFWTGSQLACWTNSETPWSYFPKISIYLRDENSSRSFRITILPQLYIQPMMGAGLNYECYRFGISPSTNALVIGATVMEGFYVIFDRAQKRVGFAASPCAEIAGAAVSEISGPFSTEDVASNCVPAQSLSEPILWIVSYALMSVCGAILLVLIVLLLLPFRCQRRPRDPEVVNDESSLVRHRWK

[19] = target: Cytochrome P450 3A4 (Homo sapiens, UniProt P08684); assay: Inhibition of CYP3A4 (unknown origin); format: ADME
Sequence of Cytochrome P450 3A4 (P08684 whole entry): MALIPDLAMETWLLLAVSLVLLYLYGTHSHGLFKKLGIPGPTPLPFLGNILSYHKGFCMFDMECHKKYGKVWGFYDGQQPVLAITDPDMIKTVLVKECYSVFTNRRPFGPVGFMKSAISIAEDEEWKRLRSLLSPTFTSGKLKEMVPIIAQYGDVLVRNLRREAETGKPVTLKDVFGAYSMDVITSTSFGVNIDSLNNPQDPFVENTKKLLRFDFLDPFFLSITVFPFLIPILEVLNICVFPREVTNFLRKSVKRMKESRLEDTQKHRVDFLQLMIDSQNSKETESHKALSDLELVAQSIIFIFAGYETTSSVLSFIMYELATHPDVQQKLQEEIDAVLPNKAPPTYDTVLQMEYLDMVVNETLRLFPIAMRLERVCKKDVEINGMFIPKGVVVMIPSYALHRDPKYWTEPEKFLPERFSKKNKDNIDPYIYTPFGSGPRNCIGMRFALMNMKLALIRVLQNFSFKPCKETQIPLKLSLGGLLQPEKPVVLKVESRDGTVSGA

[20] = target: Cytochrome P450 2C9 (Homo sapiens, UniProt P11712); assay: Inhibition of CYP2C9 (unknown origin); format: ADME
Sequence of Cytochrome P450 2C9 (P11712 whole entry): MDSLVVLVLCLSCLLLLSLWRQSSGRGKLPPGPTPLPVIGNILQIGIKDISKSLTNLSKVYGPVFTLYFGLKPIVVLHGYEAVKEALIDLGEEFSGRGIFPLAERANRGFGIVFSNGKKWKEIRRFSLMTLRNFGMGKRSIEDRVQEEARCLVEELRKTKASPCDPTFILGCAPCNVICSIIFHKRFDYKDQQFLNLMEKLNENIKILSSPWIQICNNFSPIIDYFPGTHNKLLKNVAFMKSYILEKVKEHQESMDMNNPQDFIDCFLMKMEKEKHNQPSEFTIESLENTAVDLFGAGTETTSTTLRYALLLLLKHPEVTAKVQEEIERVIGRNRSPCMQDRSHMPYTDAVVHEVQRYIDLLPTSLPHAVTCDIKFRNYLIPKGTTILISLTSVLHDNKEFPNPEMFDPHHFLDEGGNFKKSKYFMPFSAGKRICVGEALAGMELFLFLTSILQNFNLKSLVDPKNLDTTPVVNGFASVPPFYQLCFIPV

[21] = target: Cytochrome P450 2D6 (Homo sapiens, UniProt P10635); assay: Inhibition of CYP2D6 (unknown origin); format: ADME
Sequence of Cytochrome P450 2D6 (P10635 whole entry): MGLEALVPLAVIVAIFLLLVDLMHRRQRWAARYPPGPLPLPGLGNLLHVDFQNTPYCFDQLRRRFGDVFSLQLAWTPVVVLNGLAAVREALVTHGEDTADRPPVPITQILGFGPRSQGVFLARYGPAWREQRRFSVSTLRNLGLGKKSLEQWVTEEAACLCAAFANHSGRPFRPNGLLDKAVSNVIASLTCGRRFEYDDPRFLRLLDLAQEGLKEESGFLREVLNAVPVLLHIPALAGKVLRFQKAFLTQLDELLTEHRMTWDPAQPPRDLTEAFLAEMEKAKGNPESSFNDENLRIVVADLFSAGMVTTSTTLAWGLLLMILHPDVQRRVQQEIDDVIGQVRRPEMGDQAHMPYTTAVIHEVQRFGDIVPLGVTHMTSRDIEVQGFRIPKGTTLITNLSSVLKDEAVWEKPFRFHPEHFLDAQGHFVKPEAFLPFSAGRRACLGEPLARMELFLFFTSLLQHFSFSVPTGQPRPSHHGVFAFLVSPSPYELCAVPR

[22] = test system: Salmonella typhimurium; assay: Mutagenicity in Salmonella typhimurium in presence of liver S9 fraction by Ames test; format: toxicity, organism-based; settings: salmonella enterica subsp. enterica serovar typhimurium
[23] = test system: Salmonella typhimurium; assay: Mutagenicity in Salmonella typhimurium in absence of liver S9 fraction by Ames test; format: toxicity, organism-based; settings: salmonella enterica subsp. enterica serovar typhimurium
[24] = target: Sodium channel protein type 5 subunit alpha (Homo sapiens, UniProt Q14524); assay: Inhibition of Nav1.5 (unknown origin) by patch clamp assay
Sequence of Sodium channel protein type 5 subunit alpha (Q14524 whole entry): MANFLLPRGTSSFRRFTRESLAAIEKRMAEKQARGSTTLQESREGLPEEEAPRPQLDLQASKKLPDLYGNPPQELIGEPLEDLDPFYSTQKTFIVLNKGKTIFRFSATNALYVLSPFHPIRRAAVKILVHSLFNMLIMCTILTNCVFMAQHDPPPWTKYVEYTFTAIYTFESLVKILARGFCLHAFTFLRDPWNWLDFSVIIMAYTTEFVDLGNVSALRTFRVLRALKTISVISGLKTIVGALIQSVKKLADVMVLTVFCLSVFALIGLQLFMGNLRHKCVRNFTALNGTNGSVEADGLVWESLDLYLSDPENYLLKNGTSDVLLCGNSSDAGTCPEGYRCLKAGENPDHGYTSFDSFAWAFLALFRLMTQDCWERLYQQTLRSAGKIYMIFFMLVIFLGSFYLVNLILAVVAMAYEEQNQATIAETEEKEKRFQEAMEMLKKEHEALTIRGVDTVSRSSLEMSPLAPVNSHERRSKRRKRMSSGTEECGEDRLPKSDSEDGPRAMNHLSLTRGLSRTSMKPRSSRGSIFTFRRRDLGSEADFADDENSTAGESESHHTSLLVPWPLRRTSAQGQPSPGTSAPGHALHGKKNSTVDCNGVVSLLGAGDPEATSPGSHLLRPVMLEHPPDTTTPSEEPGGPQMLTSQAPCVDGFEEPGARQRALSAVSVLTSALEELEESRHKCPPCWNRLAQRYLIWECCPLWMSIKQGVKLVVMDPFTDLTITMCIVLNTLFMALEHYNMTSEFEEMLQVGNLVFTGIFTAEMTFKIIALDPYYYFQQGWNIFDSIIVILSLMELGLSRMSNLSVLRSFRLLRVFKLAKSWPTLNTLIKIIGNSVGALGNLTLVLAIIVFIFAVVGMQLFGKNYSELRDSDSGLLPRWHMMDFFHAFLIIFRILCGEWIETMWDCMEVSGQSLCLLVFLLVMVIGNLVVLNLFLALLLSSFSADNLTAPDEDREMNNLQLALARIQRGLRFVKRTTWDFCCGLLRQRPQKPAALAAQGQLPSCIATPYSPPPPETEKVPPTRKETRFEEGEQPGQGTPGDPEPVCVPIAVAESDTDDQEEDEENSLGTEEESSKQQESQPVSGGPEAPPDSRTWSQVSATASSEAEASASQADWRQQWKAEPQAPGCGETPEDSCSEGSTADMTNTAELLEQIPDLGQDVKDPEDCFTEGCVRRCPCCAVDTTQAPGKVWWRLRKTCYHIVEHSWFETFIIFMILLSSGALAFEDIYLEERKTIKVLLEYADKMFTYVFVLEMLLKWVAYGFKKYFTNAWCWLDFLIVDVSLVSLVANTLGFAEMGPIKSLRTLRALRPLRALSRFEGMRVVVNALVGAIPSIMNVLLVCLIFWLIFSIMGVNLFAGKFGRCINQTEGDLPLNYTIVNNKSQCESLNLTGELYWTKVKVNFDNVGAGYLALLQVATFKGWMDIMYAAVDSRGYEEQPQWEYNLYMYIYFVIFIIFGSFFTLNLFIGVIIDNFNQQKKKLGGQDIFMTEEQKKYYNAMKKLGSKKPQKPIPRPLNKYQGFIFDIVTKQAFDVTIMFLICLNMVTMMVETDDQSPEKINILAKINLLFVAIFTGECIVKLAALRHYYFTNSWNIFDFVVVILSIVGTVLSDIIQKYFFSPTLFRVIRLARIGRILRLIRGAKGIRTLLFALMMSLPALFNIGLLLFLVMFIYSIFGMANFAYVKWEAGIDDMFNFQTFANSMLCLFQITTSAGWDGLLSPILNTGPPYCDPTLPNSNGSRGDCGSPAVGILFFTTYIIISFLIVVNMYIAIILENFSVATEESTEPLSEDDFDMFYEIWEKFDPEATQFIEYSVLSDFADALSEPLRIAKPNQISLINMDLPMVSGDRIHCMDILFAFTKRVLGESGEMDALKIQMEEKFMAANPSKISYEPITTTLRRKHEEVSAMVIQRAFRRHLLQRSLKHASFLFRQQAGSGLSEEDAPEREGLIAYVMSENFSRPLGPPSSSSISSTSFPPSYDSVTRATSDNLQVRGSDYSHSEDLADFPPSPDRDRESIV

[25] = target: Sodium channel protein type 2 subunit alpha (Homo sapiens, UniProt Q99250); assay: Inhibition of Nav1.2 (unknown origin) by patch clamp assay
[26] = Chemical stability at 80 degC; format: physicochemical
[27] = Solubility in water at pH 1 to 9; format: physicochemical

CCOC[C@@H](CC(C)C)NC(=O)[C@@H]1CNC[C@H](C(=O)N(c2ccc(C(C)C)cn2)C2CC2)[C@@H]1O.O=C(O)CCC(=O)O
Activity [1]: 42 mmHg
Activity [2]: 52 mmHg
Activity [3]: 63 mmHg
Activity [4]: 66 mmHg
bioavailability [5]: 61%
clearance [6]: 40 mL/min/kg
Vd [7]: 4 L/kg
half-life [8]: 6.8 h
Cmax/dose [9]: 136 nM/mg/kg
AUC/dose [10]: 552 nM·h/mg/kg
Activity [11]: 33 mmHg

CCOC[C@@H](CC(C)C)NC(=O)[C@@H]1CNC[C@H](C(=O)N(c2ccc(C(C)C)cn2)C2CC2)[C@@H]1O
logD [12]: 0.93
IC50 [13]: > 30 µM
IC50 [14]: > 30 µM
IC50 [15]: > 30 µM
IC50 [16]: > 30 µM
IC50 [17]: > 30 µM
IC50 [18]: > 30 µM
IC50 [19]: > 30 µM
IC50 [20]: > 30 µM
IC50 [21]: > 30 µM
Activity [22]: Non-toxic
Activity [23]: Non-toxic
IC50 [24]: > 30 µM
IC50 [25]: > 30 µM
Stability [26]: 3 days
solubility [27]: > 10000 µg/mL
